# Experiments:
# PKC-α [1] = biological target: T1, PKC-α (Homo sapiens, UniProt P17252); assay: PKC-α immunostaining (subcellular localization); type: cell-based; conditions: 1 μM, 90 min at 37° C.
# T1 construct: Cytosolic and particulate fractions were prepared from CAC-1 cells and 30 μg of protein/lane was applied to SDS/PAGE and PKC-α detected by immunoblotting; endogenous in cells
# Method: (§1) Cells were treated as described for the growth culve for 90 min at 37° C. Prior to MARCKS staining some cells were treated with 14 nM bisindolylmaleimide (Calbiochem, La Jolla, Calif.) for 90 min at 37° C. in order to down-regulate PKC isoforms. Cells were immunostained for PKC-α using an immunofluorescent assay kit and instructions from Research and Diagnostics (Berkley, Calif.) as described previously by Carter, et al., 1998. For MARCKS staining, cells were fixed and permeabilized as described for F-actin visualization and exposed to an anti-MARCKS mouse monoclonal IgG antibody (Upstate Biotechnology, Lake Placid, N.Y.) diluted 1:400 in 1% Bovine Serum Albumin and 0.5% nonfat dry milk (Carnation) in PBS for 1 hr at 37° C. […] Cells were rinsed, mounted and observed as described for actin staining.
# MARCKS = MARCKS immunostaining (subcellular localization); type: cell-based, human; conditions: 90 min at 37° C.
# Method: as §1
# CAC-1 cells [2] = assay: Retinoic acid treatment and F-actin staining with cell size measurement; conditions: 1 μM, 90 min at 37° C.; for mean cell size relative to cells only exposed to media or ethanol: 25 cells per group; for cell enlargement and actin filament reorganization (F-actin staining): CAC-1 cells at passage 12
# PKC-α [3] = biological target: T1, PKC-α; assay: PKC-α Western blot of cytosolic and particulate fractions; type: cell-based; conditions: CAC-1 cells; for amount of PKC-α in the cytosolic fraction / amount of PKC-α in the particulate fraction: 1 μM, 90 min
# Method: Confluent 100 mm dishes of CAC-1 cells in the exponential phase of growth (70-80% maximum density) were treated for 90 min with media alone or 1 μM doses of all-trans or 13-cis retinoic acid, corresponding amounts of ethanol (vehcile control) or with TPA for 20 min to activate PKC-α. Cytosolic and particulate fractions of cells were isolated as described previously (Carter, et al., 1998) and changes in PKC-α were analyzed by Western blot analysis using methods described previously and a primary antibody from Transduction Laboratories (Carter, et al., 1998).
# CAC-1 cells [4] = assay: Cell detachment assay; type: cell-based, human; conditions: 1 μM, 24 hrs at 37° C.
# Method: CAC-1 cells were plated onto 35 mm plastic tissue culture dishes at 100,000 cells per dish and allowed to attach for 7 days. For analysis of the retinoic acid effects on cell attachment, cell detachment assays were performed using the methods of Guo, et al., 1995. Cells were exposed to media alone (controls), 1 μM 13-cis retinoic acid, […] retinoic acid or corresponding doses of ethanol alone in culture media alone (vehicle control) for 24 hrs at 37° C. prior to cell counting. The assays were performed in duplicate. Cells were rinsed twice with sterile HBSS and exposed to 0.5% trypsin/EDTA (Gibco, BRL) for 10 min with constant agitation on a rocker set at 120 rpm's. The media containing the detached cells was collected. Detached cells from each dish were counted using a hemacytometer and the mean calculated and graphed using Cricket Graph. Statistics were performed using StatMost, (DataMost Corporation, Sandy, Utah). Statistical analysis was performed using one way analysis of variance-(ANOVA).
# hematopoietic cells = conditions: cited from earlier work
Compound,PKC-α localization (PKC-α [1]),MARCKS localization (MARCKS; 1 μM),mean cell size relative to cells only exposed to media or ethanol (CAC-1 cells [2]),cell enlargement and actin filament reorganization (F-actin staining) (CAC-1 cells [2]),amount of PKC-α in the cytosolic fraction (PKC-α [3]),amount of PKC-α in the particulate fraction (PKC-α [3]),decrease in cell detachment compared to controls (CAC-1 cells [4]),decrease in mean F-actin content (hematopoietic cells) [%],PKC-α distribution between cytosolic and particulate fractions (PKC-α [3]; 100 nM TPA for 20 min),MARCKS localization (MARCKS; 14 nM)
CC1=C(/C=C/C(C)=C/C=C/C(C)=C\C(=O)O)C(C)(C)CCC1 [13-cis retinoic acid],localize exclusively to the cytoplasm occurring predominantly in perinuclear regions,MARCKS localized to the plasma membrane,twice the size,cells enlarged and actin filaments were apparent,slight increase,decrease,around 40%,,,
"CCCCCCCCCCCCCC(=O)O[C@@H]1[C@@H](C)[C@@]2(O)[C@@H](C=C(CO)C[C@]3(O)C(=O)C(C)=C[C@@H]23)[C@@H]2C(C)(C)[C@]12OC(C)=O [TPA, 12-O-tetradecanoylphorbol-13-acetate]",,,,,,,,32,most of the PKC-α was present in the particulate fraction,
CC1=C(/C=C/C(C)=C/C=C/C(C)=C/C(=O)O)C(C)(C)CCC1 [all-trans retinoic acid],localize exclusively to the cytoplasm occurring predominantly in perinuclear regions,MARCKS localized to the plasma membrane,twice the size,cells also enlarged and actin filaments were prominent throughout the cells,slight increase,decrease,around 40%,,,
bisindolylmaleimide,,,,,,,,,,MARCKS staining was prominent in the plasma membrane

# Reference: patent US20020173036A1, “Cell line and method of making and using same” (priority 2001, published 2002)
